From patent US20110144331A1, “Cinnoline Compounds for the Treatment of Anxiety, Cognitive and Mood Disorders” (AstraZeneca AB, priority 2005, published 2011)

Assays:
[1] = target: T1, human α1β2γ2 GABAA receptor (Homo sapiens, UniProt P14867+P18507); assay: Two-electrode voltage-clamp in Xenopus oocytes, potentiation of GABA EC10 current, GABAA1; assay type: cell-based; details: percentage potentiation of GABA EC10 current divided by that of diazepam control
T1 construct: expressed in transfected cells; host or cells: Xenopus laevis oocytes injected with capped cRNA
T1 sequence (P14867 28-456): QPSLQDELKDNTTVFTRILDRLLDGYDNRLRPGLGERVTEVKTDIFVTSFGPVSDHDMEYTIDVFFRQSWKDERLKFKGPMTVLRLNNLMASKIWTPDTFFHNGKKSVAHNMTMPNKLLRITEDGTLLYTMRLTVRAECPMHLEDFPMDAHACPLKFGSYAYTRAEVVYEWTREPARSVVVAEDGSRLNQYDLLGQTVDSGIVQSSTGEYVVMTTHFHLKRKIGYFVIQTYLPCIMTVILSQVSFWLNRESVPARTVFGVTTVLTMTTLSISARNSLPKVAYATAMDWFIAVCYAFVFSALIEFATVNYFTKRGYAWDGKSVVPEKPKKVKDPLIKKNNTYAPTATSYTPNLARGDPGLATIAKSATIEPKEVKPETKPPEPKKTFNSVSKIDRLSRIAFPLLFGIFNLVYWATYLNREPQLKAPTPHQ
T1 sequence (P47870 25-512 partner limits assumed): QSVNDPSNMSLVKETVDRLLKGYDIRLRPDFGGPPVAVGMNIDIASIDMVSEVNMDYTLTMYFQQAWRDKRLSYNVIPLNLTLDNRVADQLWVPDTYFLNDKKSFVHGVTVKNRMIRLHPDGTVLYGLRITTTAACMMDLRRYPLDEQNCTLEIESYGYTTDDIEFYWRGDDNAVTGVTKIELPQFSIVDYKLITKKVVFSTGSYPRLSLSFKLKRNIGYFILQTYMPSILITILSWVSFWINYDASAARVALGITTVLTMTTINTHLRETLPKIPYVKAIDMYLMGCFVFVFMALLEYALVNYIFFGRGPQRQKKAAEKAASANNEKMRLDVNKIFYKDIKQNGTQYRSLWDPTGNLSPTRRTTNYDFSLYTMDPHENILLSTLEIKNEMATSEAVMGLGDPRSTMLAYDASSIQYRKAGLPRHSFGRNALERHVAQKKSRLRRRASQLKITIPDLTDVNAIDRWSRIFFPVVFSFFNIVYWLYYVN
T1 sequence (P18507 40-475): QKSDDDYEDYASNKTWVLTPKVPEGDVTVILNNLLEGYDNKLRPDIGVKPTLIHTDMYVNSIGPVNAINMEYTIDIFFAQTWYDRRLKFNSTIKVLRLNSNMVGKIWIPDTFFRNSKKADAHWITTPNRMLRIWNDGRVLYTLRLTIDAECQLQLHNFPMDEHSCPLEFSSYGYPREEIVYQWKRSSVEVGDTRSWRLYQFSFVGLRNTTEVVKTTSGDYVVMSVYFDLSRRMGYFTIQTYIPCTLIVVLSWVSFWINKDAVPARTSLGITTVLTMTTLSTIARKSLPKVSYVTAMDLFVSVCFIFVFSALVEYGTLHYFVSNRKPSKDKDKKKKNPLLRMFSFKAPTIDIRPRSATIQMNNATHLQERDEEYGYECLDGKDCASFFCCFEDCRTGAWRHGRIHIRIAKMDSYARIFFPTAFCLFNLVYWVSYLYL
Protocol: (§1) GABAA receptors were heterologously expressed in Xenopus oocytes by injecting cRNA corresponding to human α1, α2, α3, α5, β2, β3 and γ2 subunits of the GABAA receptor genes. The specific subunit combinations (subtypes) were as follows: α1β2γ2, α2β3γ2, α3β3γ2, and α5β3γ2. The EC10 of GABA was approximated for each cell. Stability of GABA-mediated (EC10) current was established. Modulatory effect of test compound was determined and compared across subtypes. […] Thus, the assay can characterize modulatory effects and determine subtype selectivity of test compounds on major subtypes of GABAA receptors.
(§2) Surgically removed ovarian lobes were teased out in OR2 solution (82 NaCl, 2.5 KCl, 5 HEPES, 1.5 NaH2PO4, 1 MgCl2, 0.1 EDTA, in mM, pH 7.4). The oocytes were defolliculated by incubation in 25 mL OR2 containing 0.2% collagenase 1A (SIGMA) two times for about 60 minutes on a platform shaker and stored in Leibovitz's L-15 medium. Oocytes were injected the following day in 0.5× Leibovitz's L-15 medium containing […] gentamycin, 10 units/ml penicillin, and […] streptomycin.
(§3) Capped cRNAs from the linearized vectors containing human α1, β2 and γ2 subunits of the GABAA receptor genes were mixed in ratio of 1:1:30. Oocytes were injected with 25-50 nL of mixed RNA with an appx molar ratio for α1, β2, and γ2 as 1:1:10. Oocyte recordings were done 2-10 days after injection. The same methods apply to subtypes derived from α2β2γ2, α3β3γ2, and α5β3γ2, except for 1:1:1 ratio was used for α, β, and γ subunits.
(§4) All measurements were done in a medium containing ND-96 (96 NaCl, 2 KCl, 1.8 CaCl2.2H2O, 1 MgCl2.6H2O, 5 HEPES, in mM, pH 7.5). Two-electrode voltage-clamp recording was carried out using OpusXpress amplifier (Axon Instruments, Foster City, Calif.), which allows simultaneous recording from 8 oocytes. Oocytes were impaled with two electrodes of 1-2 MΩ tip resistance when filled with 3M KCl. Recordings were begun when membrane potential became stable at potentials negative to −50-−60 mV. Membrane potential was held at −60 mV. […] The concentration of GABA corresponded to the EC10 value calculated for each oocyte. The modulator pulses started 30 s before the GABA pulse so as to allow preincubation with the modulator. A set of 3 pulses with just GABA without modulator was given prior to the modulator-containing pulses to define the baseline GABA response. Two oocytes per each experiment were dedicated to observe the effect of diazepam on GABA response to ensure the presence of γ2 subunit in the GABAA pentameric complex, which imparts diazepam sensitivity to the complex.
(§5) Current amplitude (i) was measured from baseline to peak using Clampfit (Axon Inst., Foster City, Calif.). Potentiation was calculated as percent change from the baseline GABA current flux 100×(imod/icontrol)−1) where imod=current mediated by modulator+GABA and icontrol=current mediated by GABA alone. […] Similarly, a value of −50% potentiation means the presence of modulator caused a 50% decrease in the control current. Various other data shown here were fitted and plotted using GraphPad Prism (GraphPad Software, Inc. San Diego, Calif.). The percentage potentiation was converted to relative potentiation by dividing it with percentage potentiation value obtained from the same assay with diazepam as a control.

[2] = target: T2, human α2β3γ2 GABAA receptor (Homo sapiens, UniProt P18507+P47869); assay: Two-electrode voltage-clamp in Xenopus oocytes, potentiation of GABA EC10 current, GABAA2; assay type: cell-based; details: percentage potentiation of GABA EC10 current divided by that of diazepam control
T2 construct: expressed in transfected cells; host or cells: Xenopus laevis oocytes injected with capped cRNA (α:β:γ 1:1:1)
T2 sequence (P47869 29-451): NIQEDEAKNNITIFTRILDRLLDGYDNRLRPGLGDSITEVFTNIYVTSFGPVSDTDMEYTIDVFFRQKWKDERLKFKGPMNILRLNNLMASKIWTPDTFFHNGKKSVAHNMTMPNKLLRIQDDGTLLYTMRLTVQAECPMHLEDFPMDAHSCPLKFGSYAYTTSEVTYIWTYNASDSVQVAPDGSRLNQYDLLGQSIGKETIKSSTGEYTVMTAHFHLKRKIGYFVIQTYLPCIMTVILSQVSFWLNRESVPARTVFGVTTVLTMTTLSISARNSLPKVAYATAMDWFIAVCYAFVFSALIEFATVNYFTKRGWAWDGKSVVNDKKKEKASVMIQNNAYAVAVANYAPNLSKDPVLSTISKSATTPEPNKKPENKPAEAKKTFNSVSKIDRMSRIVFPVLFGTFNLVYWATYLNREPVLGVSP
T2 sequence (P18507 40-475): as the sequence (P18507 40-475) above
T2 sequence (P28472 26-473 partner): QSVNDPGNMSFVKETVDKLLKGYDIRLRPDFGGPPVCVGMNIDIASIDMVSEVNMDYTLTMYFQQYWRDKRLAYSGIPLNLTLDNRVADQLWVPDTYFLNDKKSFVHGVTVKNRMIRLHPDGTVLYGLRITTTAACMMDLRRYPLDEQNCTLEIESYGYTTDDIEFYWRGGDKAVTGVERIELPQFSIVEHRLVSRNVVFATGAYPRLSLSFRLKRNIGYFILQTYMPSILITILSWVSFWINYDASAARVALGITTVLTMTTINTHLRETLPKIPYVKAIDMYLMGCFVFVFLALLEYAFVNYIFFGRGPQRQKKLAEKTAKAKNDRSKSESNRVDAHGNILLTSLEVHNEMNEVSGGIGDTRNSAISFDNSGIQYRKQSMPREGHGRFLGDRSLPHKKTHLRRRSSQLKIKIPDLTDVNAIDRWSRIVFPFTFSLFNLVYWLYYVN
Protocol: as §1, §2, §3, §4, §5

With CCCNC(=O)c1nnc2c(-c3cccc(F)c3F)cccc2c1N the “Relative Potentiation for GABAA1” value [1] was −0.11 and the “Relative Potentiation for GABAA2” value [2] was 0.17.

With CCCNC(=O)c1nnc2c(-c3ccc(OC)nc3OC)cccc2c1N the “Relative Potentiation for GABAA1” value [1] was 0.17 and the “Relative Potentiation for GABAA2” value [2] was 0.25.

With CCCNC(=O)c1nnc2c(-c3ccc(F)cc3OC)c(F)ccc2c1N the “Relative Potentiation for GABAA1” value [1] was −0.028 and the “Relative Potentiation for GABAA2” value [2] was 0.18.

For CCCNC(=O)c1nnc2c(-c3ccc(OC)cc3F)c(F)ccc2c1N, the “Relative Potentiation for GABAA1” value [1] was 0.053 and the “Relative Potentiation for GABAA2” value [2] was 0.18.

In the case of CCCNC(=O)c1nnc2c(-c3cccc(C)c3C)c(F)ccc2c1N, the “Relative Potentiation for GABAA1” value [1] was 0.11 and the “Relative Potentiation for GABAA2” value [2] was 0.13.

With COc1cccc(F)c1-c1cccc2c(N)c(C(=O)NC3CC3)nnc12 the “Relative Potentiation for GABAA1” value [1] was −0.048 and the “Relative Potentiation for GABAA2” value [2] was 0.16.

CCCNC(=O)c1nnc2c(-c3cc(Cl)ccc3Cl)cccc2c1N was tested, and the “Relative Potentiation for GABAA1” value [1] was 0.12 and the “Relative Potentiation for GABAA2” value [2] was 0.21.

With CCCNC(=O)c1nnc2c(-c3cc(F)ccc3C)c(F)ccc2c1N the “Relative Potentiation for GABAA1” value [1] was 0.032 and the “Relative Potentiation for GABAA2” value [2] was 0.12.

For CCCNC(=O)c1nnc2c(-c3cc(C)ccc3F)cccc2c1N, the “Relative Potentiation for GABAA1” value [1] was 0.095 and the “Relative Potentiation for GABAA2” value [2] was 0.37.

CCCNC(=O)c1nnc2c(-c3cnc(OC)nc3OC)c(F)ccc2c1N was tested, and the “Relative Potentiation for GABAA1” value [1] was 0.12 and the “Relative Potentiation for GABAA2” value [2] was 0.39.

With CCCNC(=O)c1nnc2c(-c3cc(C)ccc3OC)c(F)ccc2c1N the “Relative Potentiation for GABAA1” value [1] was 0.23 and the “Relative Potentiation for GABAA2” value [2] was 0.37.

With CCCNC(=O)c1nnc2c(-c3cnc4ccccc4c3)cccc2c1N the “Relative Potentiation for GABAA1” value [1] was −0.15 and the “Relative Potentiation for GABAA2” value [2] was 0.11.

CCNC(=O)c1nnc2c(-c3cnc(OC)nc3OC)cccc2c1N was tested, and the “Relative Potentiation for GABAA1” value [1] was 0.005 and the “Relative Potentiation for GABAA2” value [2] was 0.35.

For CCCNC(=O)c1nnc2c(-c3ccc(OC)cc3)cccc2c1N, the “Relative Potentiation for GABAA1” value [1] was −0.11 and the “Relative Potentiation for GABAA2” value [2] was 0.06.

With CCCNC(=O)c1nnc2c(-c3ccc(C)c(C)c3)cccc2c1N the “Relative Potentiation for GABAA1” value [1] was 0.23 and the “Relative Potentiation for GABAA2” value [2] was 0.35.

For CCCNC(=O)c1nnc2c(-c3ccc(OC)c(C)c3)cccc2c1N, the “Relative Potentiation for GABAA1” value [1] was 0.21 and the “Relative Potentiation for GABAA2” value [2] was 0.27.

For CCCNC(=O)c1nnc2c(-c3ccsc3)cccc2c1N, the “Relative Potentiation for GABAA1” value [1] was −0.26 and the “Relative Potentiation for GABAA2” value [2] was 0.038.

In the case of Nc1c(C(=O)NCC2CC2)nnc2c(-c3ccccc3)cccc12, the “Relative Potentiation for GABAA1” value [1] was 0.11 and the “Relative Potentiation for GABAA2” value [2] was 0.24.

With CCCNC(=O)c1nnc2c(-c3ccccn3)cccc2c1N the “Relative Potentiation for GABAA1” value [1] was 0.027 and the “Relative Potentiation for GABAA2” value [2] was −0.032.

With CCCNC(=O)c1nnc2c(-c3cnc(OC)nc3)cccc2c1N the “Relative Potentiation for GABAA1” value [1] was −0.066 and the “Relative Potentiation for GABAA2” value [2] was 0.11.

In the case of CCCNC(=O)c1nnc2c(-c3ccc(F)c(F)c3)cccc2c1N, the “Relative Potentiation for GABAA1” value [1] was −0.14 and the “Relative Potentiation for GABAA2” value [2] was 0.12.

In the case of CCCNC(=O)c1nnc2c(-c3ccc(OC)c(F)c3)cccc2c1N, the “Relative Potentiation for GABAA1” value [1] was 0.03 and the “Relative Potentiation for GABAA2” value [2] was 0.19.

CCCNC(=O)c1nnc2c(-c3cnccn3)cccc2c1N was tested, and the “Relative Potentiation for GABAA1” value [1] was −0.067 and the “Relative Potentiation for GABAA2” value [2] was −0.01.

With CCCNC(=O)c1nnc2c(-c3cc(Cl)cc(Cl)c3)cccc2c1N the “Relative Potentiation for GABAA1” value [1] was 0.28 and the “Relative Potentiation for GABAA2” value [2] was 0.48.

For CCCNC(=O)c1nnc2c(-c3cnc(OC)c(F)c3)cccc2c1N, the “Relative Potentiation for GABAA1” value [1] was −0.012 and the “Relative Potentiation for GABAA2” value [2] was 0.14.

For CCCNC(=O)c1nnc2c(-c3cnc(OC)c(Cl)c3)cccc2c1N, the “Relative Potentiation for GABAA1” value [1] was 0.086 and the “Relative Potentiation for GABAA2” value [2] was 0.04.

For CCCNC(=O)c1nnc2c(-c3ccc(N(C)C)cc3)cccc2c1N, the “Relative Potentiation for GABAA1” value [1] was 0.07 and the “Relative Potentiation for GABAA2” value [2] was 0.18.

CCCNC(=O)c1nnc2c(-c3ccc(C)cc3)cccc2c1N was tested, and the “Relative Potentiation for GABAA1” value [1] was 0.013 and the “Relative Potentiation for GABAA2” value [2] was 0.11.

CCCNC(=O)c1nnc2c(-c3ccc4[nH]ccc4c3)cccc2c1N was tested, and the “Relative Potentiation for GABAA1” value [1] was 0.15 and the “Relative Potentiation for GABAA2” value [2] was 0.16.

With CNC(=O)c1nnc2c(-c3cc(C)ccc3OC)cccc2c1N the “Relative Potentiation for GABAA1” value [1] was 0.19 and the “Relative Potentiation for GABAA2” value [2] was 0.43.

For CCCNC(=O)c1nnc2c(-c3cc(C)c(OC)c(C)c3)cccc2c1N, the “Relative Potentiation for GABAA1” value [1] was 0.79 and the “Relative Potentiation for GABAA2” value [2] was 0.32.

In the case of CCCNC(=O)c1nnc2c(-c3cc(F)ccc3F)c(F)ccc2c1N, the “Relative Potentiation for GABAA1” value [1] was 0.013 and the “Relative Potentiation for GABAA2” value [2] was 0.098.

CCCNC(=O)c1nnc2c(-c3cccc(OC(F)(F)F)c3)cccc2c1N was tested, and the “Relative Potentiation for GABAA1” value [1] was 0.87 and the “Relative Potentiation for GABAA2” value [2] was 0.48.

With CCCNC(=O)c1nnc2c(-c3cccc(C(=O)O)c3)cccc2c1N the “Relative Potentiation for GABAA1” value [1] was −0.038 and the “Relative Potentiation for GABAA2” value [2] was 0.08.

For CCCNC(=O)c1nnc2c(-c3cc(OC)c(OC)c(OC)c3)cccc2c1N, the “Relative Potentiation for GABAA1” value [1] was 0.4 and the “Relative Potentiation for GABAA2” value [2] was 0.67.

With CCCNC(=O)c1nnc2c(-c3ccccc3)c(OC)ccc2c1N the “Relative Potentiation for GABAA1” value [1] was 0.12 and the “Relative Potentiation for GABAA2” value [2] was 0.08.

For CCCNC(=O)c1nnc2c(-c3ccc(OC(F)(F)F)cc3)cccc2c1N, the “Relative Potentiation for GABAA1” value [1] was 0.32 and the “Relative Potentiation for GABAA2” value [2] was 0.04.

In the case of CCCNC(=O)c1nnc2c(-c3cc(C(F)(F)F)cc(C(F)(F)F)c3)cccc2c1N, the “Relative Potentiation for GABAA1” value [1] was 0.44 and the “Relative Potentiation for GABAA2” value [2] was 0.13.

With CCNC(=O)c1nnc2c(-c3cnc(OC)c(F)c3)cccc2c1N the “Relative Potentiation for GABAA1” value [1] was −0.010 and the “Relative Potentiation for GABAA2” value [2] was 0.223.

With COc1ccc(F)cc1-c1cccc2c(N)c(C(=O)NC3CC3)nnc12 the “Relative Potentiation for GABAA1” value [1] was −0.028 and the “Relative Potentiation for GABAA2” value [2] was 0.357.

In the case of COc1ccncc1-c1cccc2c(N)c(C(=O)NC3CC3)nnc12, the “Relative Potentiation for GABAA1” value [1] was 0.077 and the “Relative Potentiation for GABAA2” value [2] was 0.337.

In the case of COc1ncccc1-c1cccc2c(N)c(C(=O)NC3CC3)nnc12, the “Relative Potentiation for GABAA1” value [1] was −0.054 and the “Relative Potentiation for GABAA2” value [2] was 0.247.

With COc1ccc(-c2cccc3c(N)c(C(=O)NC4CCC4)nnc23)c(OC)c1 the “Relative Potentiation for GABAA1” value [1] was 0.091 and the “Relative Potentiation for GABAA2” value [2] was 0.243.

Cc1ccc(-c2cccc3c(N)c(C(=O)NC4CC4)nnc23)cn1 was tested, and the “Relative Potentiation for GABAA1” value [1] was −0.166 and the “Relative Potentiation for GABAA2” value [2] was 0.074.

For CCNC(=O)c1nnc2c(-c3ccc(OC)cc3OC)cccc2c1N, the “Relative Potentiation for GABAA1” value [1] was −0.006 and the “Relative Potentiation for GABAA2” value [2] was 0.104.
